Article PMC6642134, “Dopey1-Mon2 complex binds to dual-lipids and recruits kinesin-1 for membrane trafficking” (Nature Communications, 2019)

T1: GST-DEC (Dopey1 extreme C-terminal region) (Homo sapiens, UniProt B2RWN9)
T1 construct: DEC domain, residues 2146-2456, N-terminal GST fusion kept, E. coli BL21 DE3, detergent-free; dimeric through GST
T1 sequence (B2RWN9 2146-2456): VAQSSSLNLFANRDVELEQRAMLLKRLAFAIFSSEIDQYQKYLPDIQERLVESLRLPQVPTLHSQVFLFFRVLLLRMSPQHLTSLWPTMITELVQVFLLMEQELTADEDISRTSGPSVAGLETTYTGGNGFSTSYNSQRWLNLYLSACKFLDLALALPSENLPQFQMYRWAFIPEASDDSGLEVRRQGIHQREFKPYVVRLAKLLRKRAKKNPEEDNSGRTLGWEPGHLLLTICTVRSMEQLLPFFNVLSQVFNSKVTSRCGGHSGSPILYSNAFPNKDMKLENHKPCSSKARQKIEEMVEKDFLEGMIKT


Tests used:
[1] = target: T1, GST-DEC (Dopey1 extreme C-terminal region); experiment: liposome pull-down with diluted protein, Western blot; type: binding; details: read-out: apparent affinity
[2] = target: the molecule itself; experiment: single-molecule photo-bleaching steps (TIRF microscopy); GFP-fusion protein in HEK293T lysate (20 mM Tris pH 7.4) immobilised on a glass coverslip; photo-bleaching steps counted; expressed alone

| Kd [1] | Molecule | stoichiometry N [2] |
| --- | --- | --- |
| ~1 µM | PI4P |  |
|  | Mon2, full length, transfected (natural protein, UniProt Q7Z3U7 1-1717, looked up, Mon2, full length; One molecule for the differently tagged copies (GFP-Mon2 and DMyc-Mon2 in the self co-IP); GFP-Mon2 in photo-bleaching; DMyc-Mon2 co-expressed with GFP-Dopey1; also called GFP-Mon2; DMyc-Mon2; source: HEK293T, transfected, in lysate; HeLa, transfected (imaging); not shown: GFP or DMyc or another fluorescence protein (by experiment), N-terminal, kept) MSGTSSPEAVKKLLENMQSDLRALSLECKKKFPPVKEAAESGIIKVKTIAARNTEILAALKENSSEVVQPFLMGCGTKEPKITQLCLAAIQRLMSHEVVSETAAGNIINMLWQLMENSLEELKLLQTVLVLLTTNTVVHDEALSKAIVLCFRLHFTKDNITNNTAAATVRQVVTVVFERMVAEDERHRDIIEQPVLVQGNSNRRSVSTLKPCAKDAYMLFQDLCQLVNADAPYWLVGMTEMTRTFGLELLESVLNDFPQVFLQHQEFSFLLKERVCPLVIKLFSPNIKFRQGSSTSSSPAPVEKPYFPICMRLLRVVSVLIKQFYSLLVTECEIFLSLLVKFLDADKPQWLRAVAVESIHRFCVQPQLLRSFCQSYDMKQHSTKVFRDIVNALGSFIQSLFLVPPTGNPATSNQAGNNNLGGSVSAPANSGMVGIGGGVTLLPAFEYRGTWIPILTITVQGSAKATYLEMLDKVEPPTIPEGYAMSVAFHCLLDLVRGITSMIEGELGELETECQTTTEEGSSPTQSTEQQDLQSTSDQMDKEIVSRAVWEEMVNACWCGLLAALSLLLDASTDEAATENILKAELTMAALCGRLGLVTSRDAFITAICKGSLPPHYALTVLNTTTAATLSNKSYSVQGQSVMMISPSSESHQQVVAVGQPLAVQPQGTVMLTSKNIQCMRTLLNLAHCHGAVLGTSWQLVLATLQHLVWILGLKPSSGGALKPGRAVEGPSTVLTTAVMTDLPVISNILSRLFESSQYLDDVSLHHLINALCSLSLEAMDMAYGNNKEPSLFAVAKLLETGLVNMHRIEILWRPLTGHLLEVCQHPNSRMREWGAEALTSLIKAGLTFNHDPPLSQNQRLQLLLLNPLKEMSNINHPDIRLKQLECVLQILQSQGDSLGPGWPLVLGVMGAIRNDQGESLIRTAFQCLQLVVTDFLPTMPCTCLQIVVDVAGSFGLHNQELNISLTSIGLLWNISDYFFQRGETIEKELNKEEAAQQKQAEEKGVVLNRPFHPAPPFDCLWLCLYAKLGELCVDPRPAVRKSAGQTLFSTIGAHGTLLQHSTWHTVIWKVLFHLLDRVRESSTTADKEKIESGGGNILIHHSRDTAEKQWAETWVLTLAGVARIFNTRRYLLQPLGDFSRAWDVLLDHIQSAALSKNNEVSLAALKSFQEILQIVSPVRDSDKPETPPVVNVPVPVLIGPISGMSRPFVRTDSIGEKLGRYSSSEPPIVTDELEDLNLWWAAWNTWYRIGSESTKPPITFDKLTFIPSQPFLTALIQIFPALYQHIKTGFNMDDLQKLGVILHSAISVPISSDASPFILPSYTEAVLTSLQEAVLTALDVLQKAICVGPENMQIMYPAIFDQLLAFVEFSCKPPQYGQLETKHIANAKYNQIQLFAPAEWVALNYVPFAERSLEVVVDLYQKTACHKAVVNEKVLQNIIKTLRVPLSLKYSCPSESTWKLAVSSLLRVLSIGLPVARQHASSGKFDSMWPELANTFEDFLFTKSIPPDNLSIQEFQRNENIDVEVVQLISNEILPYANFIPKEFVGQIMTMLNKGSIHSQSSSFTEAEIDIRLREEFSKMCFETLLQFSFSNKVTTPQEGYISRMALSVLLKRSQDVLHRYIEDERLSGKCPLPRQQVTEIIFVLKAVSTLIDSLKKTQPENVDGNTWAQVIALYPTLVECITCSSSEVCSALKEALVPFKDFMQPPASRVQNGES | 2 |
